{
  "source": "patent US20060100255A1",
  "about": "“Substituted indolealkanoic acids derivative and formulations containing same for use in the treatment of diabetic complications” (priority 2002, published 2006)",
  "key": {"[1]": {"test_system": "sorbitol levels in the sciatic nerve and lens", "test": "8-day STZ diabetic rat model, sorbitol lowering versus known ARIs", "assay_type": "in vivo", "settings": "10 mg/kg/day", "text": "3-[(4,5,7-trifluoro-1,3-benzothiazol-2-yl)methyl]-1H-indol-1-yl}acetic acid monohydrate is compared to the known […] inhibitors (ARI) zenarestat and zopolrestat in an 8-day STZ diabetic rat model."}, "NCV": {"test_system": "NCV", "test": "comparison with zenarestat and zopolrestat, inhibition of decline in NCV", "assay_type": "in vivo", "text": "3-[(4,5,7-trifluoro-1,3-benzothiazol-2-yl)methyl]-1H-indol-1-yl}acetic acid monohydrate compares very favorably with the ability of zenarestat and zopolrestat to inhibit the decline in NCV. […]"}, "[2]": {"test_system": "nerve conduction velocity (NCV) in the sciatic nerve", "test": "3 month study in STZ-diabetic rats, nerve conduction velocity", "assay_type": "in vivo, rat", "settings": "3 months treatment"}, "[3]": {"test_system": "nerve conduction velocity (NCV) in the sciatic nerve", "test": "4-week study in STZ-diabetic rats, loss of nerve conduction velocity", "assay_type": "in vivo, rat"}, "Tissue Sorbitol Levels": {"test_system": "Tissue Sorbitol Levels", "test": "tissue sorbitol levels in the STZ induced diabetic rat, 30 and 90 day studies", "assay_type": "in vivo", "text": "(§1) The test methods employed to determine the efficacy are essentially those of Mylari, et al., J. Med. Chem. 34: 108, 1991.\n[(4,5,7-trifluoro-1,3-benzothiazol-2-yl)methyl]-1H-indol-1-yl}acetic acid monohydrate in reducing Tissue Sorbitol Levels in the STZ Induced Diabetic Rat"}, "[4]": {"test_system": "sorbitol accumulation in the sciatic nerve", "test": "sorbitol accumulation in sciatic nerve of streptozotocin-induced diabetic rats, 15 day study", "assay_type": "in vivo, rat", "text": "as §1"}},
  "data": [
    {"smiles": "O=C(O)Cn1c(=O)n(Cc2ccc(Br)cc2F)c(=O)c2ccc(Cl)cc21", "note": "[zenarestat]", "values": [
      {"measurement": "Lens sorbitol lowering", "setting": "[1]", "result": 0, "unit": "%"},
      {"measurement": "Sciatic Nerve sorbitol lowering", "setting": "[1]", "result": 52, "unit": "%"},
      {"measurement": "Improvement in NCV", "setting": "NCV; 32 mg/kg/day, study 2 weeks, treatment 2 weeks", "result": 48, "unit": "%"}
    ]},
    {"smiles": "O=C(O)Cc1nn(Cc2nc3cc(C(F)(F)F)ccc3s2)c(=O)c2ccccc12", "note": "[zopolrestat]", "values": [
      {"measurement": "Lens sorbitol lowering", "setting": "[1]", "result": 0, "unit": "%"},
      {"measurement": "Sciatic Nerve sorbitol lowering", "setting": "[1]", "result": 71, "unit": "%"},
      {"measurement": "Improvement in NCV", "setting": "NCV; 25 mg/kg/day, study 4 weeks, treatment 4 weeks", "result": 43, "unit": "%"}
    ]},
    {"smiles": "O=C(O)Cn1cc(Cc2nc3c(F)c(F)cc(F)c3s2)c2ccccc21", "note": "[Example 1, 3-(4,5,7-Trifluorobenzothiazol-2-yl)methyl-indole-N-acetic Acid, monohydrate]", "values": [
      {"measurement": "Improvement in NCV", "setting": "[2]; 5 mg/kg/day", "result": 50, "unit": "%"},
      {"measurement": "Improvement in NCV", "setting": "[2]; 10 mg/kg/day", "result": 68, "unit": "%"},
      {"measurement": "Improvement in NCV", "setting": "[2]; 25 mg/kg/day", "result": 105, "unit": "%"},
      {"measurement": "inhibition of decline of nerve conduction velocity (NCV) in the sciatic nerve", "setting": "[3]; 5 mg/kg/day", "result": 14, "unit": "%"},
      {"measurement": "inhibition of decline of nerve conduction velocity (NCV) in the sciatic nerve", "setting": "[3]; 10 mg/kg/day", "result": 41, "unit": "%"},
      {"measurement": "inhibition of decline of nerve conduction velocity (NCV) in the sciatic nerve", "setting": "[3]; 25 mg/kg/day", "result": 79, "unit": "%"},
      {"measurement": "% Sorbitol Reduction, Lens", "setting": "Tissue Sorbitol Levels; 30 days, 5 mg/kg/day", "result": 88, "unit": "%"},
      {"measurement": "% Sorbitol Reduction, Sciatic Nerve", "setting": "Tissue Sorbitol Levels; 30 days, 5 mg/kg/day", "result": 100, "unit": "%"},
      {"measurement": "% Sorbitol Reduction, Lens", "setting": "Tissue Sorbitol Levels; 30 days, 10 mg/kg/day", "result": 90, "unit": "%"},
      {"measurement": "% Sorbitol Reduction, Sciatic Nerve", "setting": "Tissue Sorbitol Levels; 30 days, 10 mg/kg/day", "result": 100, "unit": "%"},
      {"measurement": "% Sorbitol Reduction, Lens", "setting": "Tissue Sorbitol Levels; 30 days, 25 mg/kg/day", "result": 95, "unit": "%"},
      {"measurement": "% Sorbitol Reduction, Sciatic Nerve", "setting": "Tissue Sorbitol Levels; 30 days, 25 mg/kg/day", "result": 100, "unit": "%"},
      {"measurement": "% Sorbitol Reduction, Kidney Cortex", "setting": "Tissue Sorbitol Levels; 90 days, 5 mg/kg/day", "result": 33, "unit": "%"},
      {"measurement": "% Sorbitol Reduction, Kidney Medulla", "setting": "Tissue Sorbitol Levels; 90 days, 5 mg/kg/day", "result": 36, "unit": "%"},
      {"measurement": "% Sorbitol Reduction, Retina", "setting": "Tissue Sorbitol Levels; 90 days, 5 mg/kg/day", "result": 89, "unit": "%"},
      {"measurement": "% Sorbitol Reduction, Sciatic Nerve", "setting": "Tissue Sorbitol Levels; 90 days, 5 mg/kg/day", "result": 100, "unit": "%"},
      {"measurement": "% Sorbitol Reduction, Kidney Cortex", "setting": "Tissue Sorbitol Levels; 90 days, 10 mg/kg/day", "result": 25, "unit": "%"},
      {"measurement": "% Sorbitol Reduction, Kidney Medulla", "setting": "Tissue Sorbitol Levels; 90 days, 10 mg/kg/day", "result": 47, "unit": "%"},
      {"measurement": "% Sorbitol Reduction, Retina", "setting": "Tissue Sorbitol Levels; 90 days, 10 mg/kg/day", "result": 99, "unit": "%"},
      {"measurement": "% Sorbitol Reduction, Sciatic Nerve", "setting": "Tissue Sorbitol Levels; 90 days, 10 mg/kg/day", "result": 100, "unit": "%"},
      {"measurement": "% Sorbitol Reduction, Kidney Cortex", "setting": "Tissue Sorbitol Levels; 90 days, 25 mg/kg/day", "result": 45, "unit": "%"},
      {"measurement": "% Sorbitol Reduction, Kidney Medulla", "setting": "Tissue Sorbitol Levels; 90 days, 25 mg/kg/day", "result": 58, "unit": "%"},
      {"measurement": "% Sorbitol Reduction, Retina", "setting": "Tissue Sorbitol Levels; 90 days, 25 mg/kg/day", "result": 96, "unit": "%"},
      {"measurement": "% Sorbitol Reduction, Sciatic Nerve", "setting": "Tissue Sorbitol Levels; 90 days, 25 mg/kg/day", "result": 100, "unit": "%"},
      {"measurement": "Lens sorbitol lowering", "setting": "[1]", "result": "25-42%"},
      {"measurement": "Sciatic Nerve sorbitol lowering", "setting": "[1]", "result": 100, "unit": "%"},
      {"measurement": "Improvement in NCV", "setting": "NCV; 25 mg/kg/day, study 4 weeks, treatment 3 weeks", "result": 79, "unit": "%"},
      {"measurement": "ED50, sorbitol accumulation in rat sciatic nerve", "setting": "[4]; 15 day study", "result": 1.3, "unit": "mg/kg/day"},
      {"measurement": "inhibition of sorbitol accumulation, rat sciatic nerve", "setting": "[4]; 15 day study, 4.8 mg/kg/day", "result": 100, "unit": "%"},
      {"measurement": "changes in fructose", "setting": "[4]; STZ diabetic rat tissues", "result": "levels were reduced"},
      {"measurement": "changes in mysinositol", "setting": "[4]; STZ diabetic rat tissues", "result": "levels were increased"}
    ]}
  ]
}
